Laboratory results taken from US20080064718A1, “INHIBITORS OF PROTEIN TYROSINE KINASE ACTIVITY” (priority 2006, published 2008).
Like-named read-outs stand apart in the source and are kept apart here.

Assays:
A549 = A549 inhibition of wound healing; format: cell-based; conditions: read-out: A549 INHIB WND ING IC50 UM
c-Met = molecular target: T1, c-Met (Homo sapiens, UniProt P08581); experiment: c-Met phosphorylation direct ELISA in MKN45 cells; format: cell-based; conditions: 3 h treatment
T1 construct: endogenous in cells; host or cells: MKN45 gastric carcinoma cells
Method: Alternatively, the following assay is used to determine inhibition of c-Met phosphorylation.
The c-Met receptor is expressed in numerous cancer cell lines derived from tumors of epithelial origin. In MKN45 gastric carcinoma cells the c-Met gene is amplified, resulting in several-fold overexpression of the receptor and its constitutive activation.
Cell treatments: MKN45 cells are seeded into wells of 96-well plates at a density of 3×10^4 cells/well in RPMI medium supplemented with 10% FBS. […] Inhibitors are added to the medium in triplicate wells at the indicated doses.
After an overnight protein binding incubation at 4° C., lysates are aspirated and wells are blocked for 1 h at 37° C. in TBST supplemented with 5% BSA. Plates are incubated with the primary antibodies anti-phospho-Tyrosine (Millipore, 4G10) diluted 1/15000 in TBST supplemented with 5% BSA for 1 h at room temperature. Plates are washed 3 times on a plate washer (SkanWasher, Molecular Devises), and incubated with the reporter antibody […] (Sigma) diluted 1/15000 in TBST supplemented with 5% BSA, for 1 h at room temperature. Plates are washed 3 times with TBST using on a plate washer and subsequently incubated with chemiluminescent substrate solution (ECL, Roche). Luminescence signal is captured on a Polar Star Optima apparatus (BMG LabTech).
Average values of the triplicate samples are used to prepare IC50 curves using a 4-parameter fit model. These curves are calculated using, for example, GraFit 5.0 software. For assay standardization purpose, an internal control is included on each experimental test plate.

[1] = molecular target: recombinant human c-Met/HGF receptor (Homo sapiens, UniProt P08581); experiment: In vitro receptor tyrosine kinase assay, c-Met/HGF receptor (DELFIA)
VEGF receptor KDR = molecular target: T2, VEGF receptor KDR (Homo sapiens, UniProt P35968); experiment: In vitro receptor tyrosine kinase assay, VEGF receptor KDR (DELFIA); format: biochemical; conditions: GST-VEGFR2 806-1356, ATP 0.6 uM
T2 construct: made in house; host or cells: Sf9 cells (Spodoptera frugiperda), recombinant baculovirus
Excerpt: In the case of VEGF receptor KDR a 1.6-kb cDNA corresponding to the catalytic domain of VEGFR2 or KDR (Genbank accession number AF035121 amino acid 806 to 1356) is cloned into the Pst I site of the pDEST20 Gateway vector (Invitrogen) for the production of a GST-tagged version of that enzyme.
The GST-VEGFR2806-1356 protein is expressed in Sf9 cells (Spodoptera frugiperda) upon infection with recombinant baculovirus construct.
The supernatant is loaded onto a GST-agarose column (Sigma) equilibrated with PBS pH 7.3. Following a four column volume (CV) wash with PBS pH 7.3+1% Triton X-100 and 4 CV wash with buffer B (50 mM Tris pH 8.0, 20% glycerol and 100 mM NaCl), bound proteins are step eluted with 5 CV of buffer B supplemented with 5 mM DTT and 15 mM glutathion. […] Final GST-VEGFR2806-1356 protein preparations concentrations are about 0.7 mg/ml with purity approximating 70%.

DU145 = DU145 scattering; format: cell-based; conditions: DU145 cells, read-out: CMET DU145 SCATT HEAL- IC50 UM

T1 sequence (P08581 25-1390): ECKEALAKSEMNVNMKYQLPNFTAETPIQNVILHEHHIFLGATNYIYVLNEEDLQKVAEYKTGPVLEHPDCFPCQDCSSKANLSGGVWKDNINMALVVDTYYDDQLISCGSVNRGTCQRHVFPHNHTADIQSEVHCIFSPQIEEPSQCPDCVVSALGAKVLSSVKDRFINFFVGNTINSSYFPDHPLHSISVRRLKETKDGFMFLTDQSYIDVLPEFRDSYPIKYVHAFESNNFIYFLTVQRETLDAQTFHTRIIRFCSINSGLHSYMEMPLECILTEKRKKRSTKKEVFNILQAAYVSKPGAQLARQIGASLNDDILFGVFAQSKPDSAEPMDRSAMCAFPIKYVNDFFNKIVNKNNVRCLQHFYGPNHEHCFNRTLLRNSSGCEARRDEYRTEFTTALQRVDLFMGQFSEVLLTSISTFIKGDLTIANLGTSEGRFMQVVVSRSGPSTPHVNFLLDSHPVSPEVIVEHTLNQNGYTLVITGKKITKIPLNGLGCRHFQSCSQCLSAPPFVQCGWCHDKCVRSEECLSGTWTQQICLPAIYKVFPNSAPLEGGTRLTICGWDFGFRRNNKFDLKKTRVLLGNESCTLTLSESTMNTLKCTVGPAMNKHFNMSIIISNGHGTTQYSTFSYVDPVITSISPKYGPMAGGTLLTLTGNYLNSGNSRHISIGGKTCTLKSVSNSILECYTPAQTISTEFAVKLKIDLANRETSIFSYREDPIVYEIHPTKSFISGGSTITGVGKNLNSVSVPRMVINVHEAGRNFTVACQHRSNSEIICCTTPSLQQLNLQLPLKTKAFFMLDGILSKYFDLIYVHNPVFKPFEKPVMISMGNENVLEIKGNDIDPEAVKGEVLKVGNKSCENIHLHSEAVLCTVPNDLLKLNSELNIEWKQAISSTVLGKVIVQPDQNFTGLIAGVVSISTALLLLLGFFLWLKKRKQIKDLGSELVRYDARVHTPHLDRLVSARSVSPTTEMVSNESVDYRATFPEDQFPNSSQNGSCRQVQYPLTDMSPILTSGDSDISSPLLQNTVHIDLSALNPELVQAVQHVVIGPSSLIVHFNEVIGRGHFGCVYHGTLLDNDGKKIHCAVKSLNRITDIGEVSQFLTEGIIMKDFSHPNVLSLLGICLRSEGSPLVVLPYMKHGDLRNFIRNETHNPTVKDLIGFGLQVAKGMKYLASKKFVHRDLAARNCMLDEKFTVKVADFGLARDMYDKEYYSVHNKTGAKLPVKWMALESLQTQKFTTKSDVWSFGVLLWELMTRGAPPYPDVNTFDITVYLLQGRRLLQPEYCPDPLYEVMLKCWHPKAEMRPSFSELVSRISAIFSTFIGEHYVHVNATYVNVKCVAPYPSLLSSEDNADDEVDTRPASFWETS
T2 sequence (P35968 806-1356): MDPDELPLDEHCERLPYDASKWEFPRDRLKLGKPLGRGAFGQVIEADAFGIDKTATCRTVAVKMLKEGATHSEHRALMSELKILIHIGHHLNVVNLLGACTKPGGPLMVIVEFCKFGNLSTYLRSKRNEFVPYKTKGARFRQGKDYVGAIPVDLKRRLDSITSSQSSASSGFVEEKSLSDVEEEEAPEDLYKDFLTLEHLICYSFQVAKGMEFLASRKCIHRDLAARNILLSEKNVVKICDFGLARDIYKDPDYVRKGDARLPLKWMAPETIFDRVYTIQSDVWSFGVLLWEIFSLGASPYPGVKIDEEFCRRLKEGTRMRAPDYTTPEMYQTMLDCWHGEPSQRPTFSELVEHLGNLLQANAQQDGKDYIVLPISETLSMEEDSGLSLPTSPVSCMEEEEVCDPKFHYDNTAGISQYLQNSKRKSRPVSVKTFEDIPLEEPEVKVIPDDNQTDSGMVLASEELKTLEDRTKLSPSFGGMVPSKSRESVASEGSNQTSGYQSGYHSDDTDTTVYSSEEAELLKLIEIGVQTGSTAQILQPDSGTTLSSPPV
recombinant human c-Met/HGF receptor, sequence (P08581 1078-1337): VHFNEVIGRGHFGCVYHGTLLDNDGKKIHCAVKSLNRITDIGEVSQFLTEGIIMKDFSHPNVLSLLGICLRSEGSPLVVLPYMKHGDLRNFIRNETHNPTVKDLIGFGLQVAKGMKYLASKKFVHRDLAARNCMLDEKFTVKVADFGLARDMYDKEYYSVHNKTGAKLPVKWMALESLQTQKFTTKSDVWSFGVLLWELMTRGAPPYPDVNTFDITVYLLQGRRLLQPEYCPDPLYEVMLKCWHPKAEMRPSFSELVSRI

`C=CCN1CCN(C(=O)Nc2ccc(Oc3ccnc4cc(-c5cn(CC)cn5)sc34)c(F)c2)C1=O` gave an IC50 (A549; Homo sapiens, A549 cells) of 250 to 500 nM, an IC50 (c-Met) of 250 to 500 nM and an IC50 [1] of less than 250 nM. It also gave an IC50 (VEGF receptor KDR; read-out: VEGFR IC50) of less than 250 nM and an IC50 (DU145; Homo sapiens, DU-145) of 250 to 500 nM.

With `Cn1ccnc1-c1cc2nccc(Oc3ccc(NC(=O)c4cnn(-c5ccccc5)c4C(F)(F)F)cc3F)c2s1` the IC50 (A549; Homo sapiens, A549, A549 cells) was greater than 1000 nM, the IC50 (VEGF receptor KDR; read-out: VEGFR IC50) was greater than 1000 nM and the IC50 (DU145; Homo sapiens, DU-145) was greater than 1000 nM.

`COCCN(C)Cc1ccc(-c2cc3nccc(Oc4ccc(NC(=O)NNc5ccccc5)cc4F)c3s2)cc1` gave an IC50 (A549; Homo sapiens, A549 cells) of 250 to 500 nM, an IC50 (c-Met) of less than 250 nM and an IC50 [1] of 250 to 500 nM. For the same compound, the IC50 (VEGF receptor KDR; read-out: VEGFR IC50) was greater than 1000 nM and the IC50 (DU145; Homo sapiens, DU-145) was greater than 1000 nM.

Compound `Cc1c(C(=O)Nc2ccc(Oc3ccnc4cc(-c5cn(C)cn5)sc34)c(F)c2)cnn1-c1ccccc1` has an IC50 (A549; Homo sapiens, A549, A549 cells) of 250 to 500 nM, an IC50 (VEGF receptor KDR; read-out: VEGFR IC50) greater than 1000 nM and an IC50 (DU145; Homo sapiens, DU-145) greater than 1000 nM.

Compound `COCCNCc1ccc(-c2cc3nccc(Oc4ccc(NC(=O)c5cnn(-c6ccccc6)c5C(F)(F)F)cc4F)c3s2)nc1` has an IC50 (A549; Homo sapiens, A549 cells) of 250 to 500 nM, an IC50 (c-Met) of 250 to 500 nM and an IC50 [1] of less than 250 nM. For the same compound, the IC50 (VEGF receptor KDR; read-out: VEGFR IC50) was greater than 1000 nM and the IC50 (DU145; Homo sapiens, DU-145) was 250 to 500 nM.

`CN(C)C(=O)c1ccc(-c2cc3nccc(Oc4ccc(NC(=O)c5cnn(-c6ccccc6)c5C(F)(F)F)cc4F)c3s2)cc1` showed an IC50 (A549; Homo sapiens, A549, A549 cells) of less than 250 nM, an IC50 (VEGF receptor KDR; read-out: VEGFR IC50) greater than 1000 nM and an IC50 (DU145; Homo sapiens, DU-145) of 250 to 500 nM.

`CS(=O)(=O)CCNCc1ccc(-c2cc3nccc(Oc4ccc(NC(=O)c5cnn(-c6ccccc6)c5C(F)(F)F)cc4F)c3s2)cc1` gave an IC50 (A549; Homo sapiens, A549, A549 cells) greater than 1000 nM, an IC50 (VEGF receptor KDR; read-out: VEGFR IC50) greater than 1000 nM and an IC50 (DU145; Homo sapiens, DU-145) greater than 1000 nM.

For `COCCNC(=O)c1ccc(-c2cc3nccc(Oc4ccc(NC(=O)c5cnn(-c6ccccc6)c5C(F)(F)F)cc4F)c3s2)nc1`, the IC50 (A549; Homo sapiens, A549, A549 cells) was greater than 1000 nM, the IC50 (VEGF receptor KDR; read-out: VEGFR IC50) was greater than 1000 nM and the IC50 (DU145; Homo sapiens, DU-145) was greater than 1000 nM.

In the case of `CN(C)C(=O)c1ccc(-c2cc3nccc(Oc4ccc(NC(=O)c5cnn(-c6ccccc6)c5C(F)(F)F)cc4F)c3s2)nc1`, the IC50 (A549; Homo sapiens, A549, A549 cells) is reported as 250 to 500 nM, the IC50 (VEGF receptor KDR; read-out: VEGFR IC50) is reported as greater than 1000 nM and the IC50 (DU145; Homo sapiens, DU-145) is reported as 250 to 500 nM.

Work on `CCOC(=O)c1ccc(-c2cc3nccc(Oc4ccc(NC(=O)c5cnn(-c6ccccc6)c5C(F)(F)F)cc4F)c3s2)cc1` yielded an IC50 (A549; Homo sapiens, A549 cells) greater than 1000 nM, an IC50 [1] greater than 1000 nM and an IC50 (VEGF receptor KDR; read-out: VEGFR IC50) greater than 1000 nM. The IC50 (DU145; Homo sapiens, DU-145) was greater than 1000 nM.

`COCCN(C)C(=O)c1ccc(-c2cc3nccc(Oc4ccc(NC(=O)c5cnn(-c6ccccc6)c5C(F)(F)F)cc4F)c3s2)nc1` gave an IC50 (A549; Homo sapiens, A549 cells) of 250 to 500 nM, an IC50 [1] of less than 250 nM and an IC50 (VEGF receptor KDR; read-out: VEGFR IC50) greater than 1000 nM. It also gave an IC50 (DU145; Homo sapiens, DU-145) greater than 1000 nM.

`Cn1cnc(-c2cc3nccc(Oc4ccc(NC(=O)c5cnn(C)c5C(F)(F)F)cc4F)c3s2)c1` gave an IC50 (A549; Homo sapiens, A549 cells) greater than 1000 nM, an IC50 [1] of less than 250 nM and an IC50 (VEGF receptor KDR; read-out: VEGFR IC50) of 500 to 1000 nM. The IC50 (DU145; Homo sapiens, DU-145) was greater than 1000 nM.

Compound `CS(=O)(=O)c1ccc(-c2cc3nccc(Oc4ccc(NC(=O)c5cnn(-c6ccccc6)c5C(F)(F)F)cc4F)c3s2)nc1` has an IC50 (A549; Homo sapiens, A549 cells) of less than 250 nM, an IC50 [1] of less than 250 nM and an IC50 (VEGF receptor KDR; read-out: VEGFR IC50) greater than 1000 nM. For the same compound, the IC50 (DU145; Homo sapiens, DU-145) was 250 to 500 nM.

In the case of `CN(C)C(=O)c1ccc(-c2cc3nccc(Oc4ccc(NC(=O)c5cnn(-c6ccc(F)cc6)c5C(F)(F)F)cc4F)c3s2)cc1`, the IC50 (A549; Homo sapiens, A549 cells) is reported as greater than 1000 nM, the IC50 [1] is reported as less than 250 nM and the IC50 (VEGF receptor KDR; read-out: VEGFR IC50) is reported as greater than 1000 nM. For the same compound, the IC50 (DU145; Homo sapiens, DU-145) was greater than 1000 nM.

With `Cn1cnc(-c2cc3nccc(Oc4ccc(NC(CC(=O)Nc5ccccc5)C(F)(F)F)cc4F)c3s2)c1` (stereo not shown) [Compound 8, 4,4,4-Trifluoro-3-(3-fluoro-4-(2-(1-methyl-1H-imidazol-4-yl)thieno[3,2-b]pyridin-7-yloxy)phenylamino)-N-phenylbutanamide] the IC50 (VEGF receptor KDR; read-out: VEGFR (IC50)) was less than 250 nM.

For `Cn1cnc(-c2cc3nccc(Oc4ccc(NC(=O)CC(Nc5ccccc5)C(F)(F)F)cc4F)c3s2)c1` (stereo not shown) [Compound 12, 4,4,4-Trifluoro-N-(3-fluoro-4-(2-(1-methyl-1H-imidazol-4-yl)thieno[3,2-b]pyridin-7-yloxy)phenyl)-3-(phenylamino)butanamide], the IC50 (VEGF receptor KDR; read-out: VEGFR (IC50)) was less than 250 nM.

Compound `Cn1cnc(-c2cc3nccc(Oc4ccc(NC(=O)c5cnn(-c6ccccc6)c5)cc4F)c3s2)c1` [drawing 192] has an IC50 (A549; A549 cells) of 250 to 500 nM, an IC50 (VEGF receptor KDR; read-out: VEGFR IC50) greater than 1000 nM and an IC50 (DU145; Homo sapiens, DU-145) greater than 1000 nM.

Compound `Cn1cnc(-c2cc3nccc(Oc4ccc(NC(=O)c5cnn(-c6ccccc6)c5)cc4F)c3s2)c1` [drawing 202] has an IC50 (A549; A549 cells) greater than 1000 nM, an IC50 (VEGF receptor KDR; read-out: VEGFR IC50) of 500 to 1000 nM and an IC50 (DU145) greater than 1000 nM.
